How the values were obtained:
[1] = biological target: Sphingosine 1-phosphate receptor 1 (Homo sapiens, UniProt P21453); test: Agonist activity at human S1P1 receptor expressed in human EDG1-bla U2OS cells after 18 hrs by beta-arrestin recruitment assay; type: cell-based
[2] = system: Plasma; test: Drug level in rat plasma treated with 3 mg/kg, po; type: ADME, organism-based; design: dose 3 mg/kg, route oral; conditions: in vivo
[3] = biological target: T1, Sphingosine 1-phosphate receptor 3 (Homo sapiens, UniProt Q99500); test: Agonist activity at human S1P3 receptor expressed in human EDG3-bla U2OS cells after 18 hrs by beta-arrestin recruitment assay; type: cell-based
[4] = species on record: Homo sapiens; test: Selectivity ratio of EC50 for human S1P3 receptor to EC50 for human S1P1 receptor
[5] = biological target: T1, Sphingosine 1-phosphate receptor 3; test: Partial agonist activity at human S1P3 receptor expressed in human EDG3-bla U2OS cells after 18 hrs by beta-arrestin recruitment assay; type: cell-based
[6] = system: Rattus norvegicus; test: Toxicity in Lewis rat assessed as reduction in circulating lymphocyte count at 3 mg/kg, po after 4 hrs; type: organism-based; design: dose 3 mg/kg, route oral; conditions: in vivo
[7] = system: Plasma; test: Drug metabolism in rat plasma assessed as 2-amino-3-(5-chloro-4-(3-(4-(cyclopentanecarbonyl)piperazin-1-yl)-1,2,4-oxadiazol-5-yl)-2-fluorophenoxy)propyl dihydrogen phosphate formation at 3 mg/kg, po; type: ADME, organism-based; design: dose 3 mg/kg, route oral; conditions: in vivo

Chain of Sphingosine 1-phosphate receptor 1 (P21453 whole entry): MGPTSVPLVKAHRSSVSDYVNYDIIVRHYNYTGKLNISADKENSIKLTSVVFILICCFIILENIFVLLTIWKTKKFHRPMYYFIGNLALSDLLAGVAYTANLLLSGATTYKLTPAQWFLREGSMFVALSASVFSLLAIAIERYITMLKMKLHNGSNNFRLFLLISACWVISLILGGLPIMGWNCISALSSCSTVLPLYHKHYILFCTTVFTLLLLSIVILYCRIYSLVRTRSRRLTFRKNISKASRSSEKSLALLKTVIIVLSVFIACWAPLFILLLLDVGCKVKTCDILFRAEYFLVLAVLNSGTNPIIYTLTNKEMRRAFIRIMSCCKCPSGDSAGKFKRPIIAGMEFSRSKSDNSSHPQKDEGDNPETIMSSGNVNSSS
T1 sequence (Q99500 whole entry): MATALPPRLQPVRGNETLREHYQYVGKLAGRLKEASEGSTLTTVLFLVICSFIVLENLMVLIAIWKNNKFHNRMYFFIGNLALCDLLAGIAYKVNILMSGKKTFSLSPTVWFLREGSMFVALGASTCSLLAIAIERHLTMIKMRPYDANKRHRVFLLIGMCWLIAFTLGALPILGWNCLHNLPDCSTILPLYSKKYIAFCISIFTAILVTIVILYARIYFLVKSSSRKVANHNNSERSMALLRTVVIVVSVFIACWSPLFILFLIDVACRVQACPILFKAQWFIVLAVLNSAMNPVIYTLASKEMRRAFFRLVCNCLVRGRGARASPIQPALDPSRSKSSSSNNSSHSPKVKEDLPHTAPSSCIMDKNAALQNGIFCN

| Structure (SMILES) | EC50 [1] [nM] | EC50 [3] [nM] | other results |
| --- | --- | --- | --- |
| N[C@H](COc1cc(Cl)c(-c2nc(N3CCN(C(=O)C4CCCC4)CC3)no2)cc1F)COP(=O)(O)O | 0.5 | 940 | Drug metabolism [2]: metabolite_detected; Ratio EC50 [4]: 2000 |
| N[C@@H](CO)COc1c(Cl)cc(-c2nc(N3CCN(C(=O)c4cccc(Cl)c4)CC3)no2)cc1Cl | > 5400 | > 10000 | – |
| N[C@H](CO)COc1cc(Cl)c(-c2nc(N3CCN(C(=O)C4CCCC4)CC3)no2)cc1F | 420 | > 10000 | – |
| N[C@@H](CO)COc1cc(Cl)c(-c2noc(N3CCN(C(=O)c4cccc(Cl)c4)CC3)n2)cc1F | 12 | > 10000 | – |
| N[C@@H](CO)COc1cc(Cl)c(-c2nc(N3CCN(C(=O)C4CCC4)CC3)no2)cc1F | 17 | > 10000 | – |
| N[C@@H](CO)COc1cc(Cl)c(-c2noc(N3CCN(C(=O)C4CCCC4)CC3)n2)cc1F | 55 | > 10000 | – |
| N[C@@H](CO)COc1cc(Cl)c(-c2nnc(N3CCN(C(=O)c4cccc(Cl)c4)CC3)s2)cc1F | 2.3 | 380 | %max [5]: 48% |
| N[C@@H](CO)COc1cc(Cl)c(-c2nc(N3CCN(C(=O)C4CCCC4)CC3)no2)cc1F | 1.7 | > 10000 | Activity [6]: Toxic; Drug metabolism [7]: metabolite_detected |
| N[C@@H](CO)COc1cc(Cl)c(-c2nc(N3CCN(C(=O)c4ccccc4)CC3)no2)cc1F | 6.5 | > 10000 | – |
| N[C@@H](CO)COc1cc(Cl)c(-c2noc(C3CCN(C(=O)C4CCCC4)CC3)n2)cc1F | 45 | > 10000 | – |
| O=C(O)CCOc1cc(Cl)c(-c2nc(N3CCN(C(=O)C4CCCC4)CC3)no2)cc1F | 240 | > 10000 | – |
| CC1(C)CC(C(=O)N2CCN(c3noc(-c4cc(F)c(OCCO)cc4Cl)n3)CC2)C1 | 910 | > 10000 | – |
| CCC(C)(C)C(=O)N1CCN(c2noc(-c3cc(F)c(OCC(N)CO)cc3Cl)n2)CC1 (configuration not stated) | 46 | – | – |
| CCc1cccnc1C(=O)N1CCN(c2noc(-c3cc(F)c(OC[C@@H](N)CO)cc3Cl)n2)CC1 | 5.3 | > 10000 | – |
| N[C@@H](CO)COc1cc(Cl)c(-c2nc(N3CCN(C(=O)C4CCCCC4)CC3)no2)cc1F | 1.2 | > 10000 | – |
| CC1(C)CC(C(=O)N2CCN(c3noc(-c4cc(F)c(OC[C@H](O)CO)cc4Cl)n3)CC2)C1 | 1200 | > 10000 | – |
| O=C(O)C1CN(Cc2cc(Cl)c(-c3nc(N4CCN(C(=O)C5CCCC5)CC4)no3)cc2F)C1 | 2100 | > 10000 | – |

| Structure (SMILES) | EC50 [1] [nM] | EC50 [3] [nM] | other results |
| --- | --- | --- | --- |
| N[C@H](CO)COc1cc(Cl)c(-c2nc(N3CCN(C(=O)C4CCC4)CC3)no2)cc1F | 1300 | > 10000 | – |
| N[C@H](CO)COc1cc(Cl)c(-c2nc(N3CCN(C(=O)c4cccc(Cl)c4)CC3)no2)cc1F | 2400 | > 10000 | – |
| CC1(C)CC(C(=O)N2CCN(c3noc(-c4cc(F)c(OC[C@@H]5COC(=O)N5)cc4Cl)n3)CC2)C1 | > 10000 | > 10000 | – |
| CC1(C)CC(C(=O)N2CCN(c3noc(-c4cc(F)c(OCCCO)cc4Cl)n3)CC2)C1 | 1100 | > 10000 | – |
| CCC(C)(C)C(=O)N1CCN(c2noc(-c3ccccc3OC)n2)CC1 | 3600 | – | – |
| N[C@@H](CO)COc1c(Cl)cc(-c2nc(N3CCN(C(=O)C4CCCCC4)CC3)no2)cc1Cl | > 10000 | > 10000 | – |
| N[C@@H](CO)COc1cc(Cl)c(-c2nnc(N3CCN(C(=O)C4CCCC4)CC3)s2)cc1F | 0.5 | 410 | %max [5]: 45% |
| N[C@@H](CO)COc1cc(Cl)c(-c2nc(N3CCN(C(=O)c4ccccn4)CC3)no2)cc1F | 92 | > 10000 | – |
| CC1(C)CC(C(=O)N2CCN(c3noc(-c4cc(F)c(OC[C@@H](N)CO)cc4Cl)n3)CC2)C1 | 3.1 | 450 | %max [5]: 63% |
| CC(C)(C(=O)N1CCN(c2noc(-c3cc(F)c(OC[C@@H](N)CO)cc3Cl)n2)CC1)C(F)(F)F | 9.8 | 4700 | %max [5]: 44% |
| N[C@@H](CO)COc1cc(Cl)c(-c2nc(N3CCN(C(=O)c4cccc(Cl)c4)CC3)no2)cc1F | 4.1 | > 10000 | – |
| C[C@H](O)COc1cc(Cl)c(-c2nc(N3CCN(C(=O)C4CC(C)(C)C4)CC3)no2)cc1F | 1100 | > 10000 | – |
| N[C@@H](CO)COc1c(Cl)cc(-c2nc(N3CCN(C(=O)C4CCCC4)CC3)no2)cc1Cl | 1600 | > 10000 | – |
| CC1(C)CC(C(=O)N2CCN(c3noc(-c4cc(F)c(OC[C@@H](O)CO)cc4Cl)n3)CC2)C1 | 1100 | > 10000 | – |
| CC1(C)CC(C(=O)N2CCN(c3noc(-c4cc(F)c(OCC(=O)O)cc4Cl)n3)CC2)C1 | > 10000 | > 10000 | – |
| CC1(C)CC(C(=O)N2CCN(c3noc(-c4cc(F)c(OCCC(=O)O)cc4Cl)n3)CC2)C1 | 2700 | > 10000 | – |

— ChEMBL document CHEMBL3351264, “Piperazinyl-oxadiazoles as selective sphingosine-1-phosphate receptor agonists” (Bioorg Med Chem Lett, 2014)
